#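 All cell lines were grown in 96-well plates and treated with compound for 48 hours. Definition used: TGI = concentration required for complete inhibition of growth.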 Where a SMILES comes first, the peptide text is derived from it. The star is where a group is joined. Cbz = O=C(OCc1ccccc1)*; Boc = CC(C)(C)OC(=O)*; tBu = CC(C)(C)*
# Tests used:
# Test in all cases: NCI anticancer screen, dose series, 48 h
# A498 renal = test system: A498 renal
# COLO 205 colon = test system: COLO 205 colon
# M14 melanoma = test system: M14 melanoma
# OVCAR-4 ovarian = test system: OVCAR-4 ovarian
# OVCAR-5 ovarian = test system: OVCAR-5 ovarian
# SF-295 CNS = test system: SF-295 CNS
# SF-539 CNS = test system: SF-539 CNS
# SN12C renal = test system: SN12C renal
# U251 CNS = test system: U251 CNS
# SK-MEL-28 melanoma = test system: SK-MEL-28 melanoma
Structure (SMILES),TGI (A498 renal) [µM],TGI (COLO 205 colon) [µM],TGI (M14 melanoma) [µM],TGI (OVCAR-4 ovarian) [µM],TGI (OVCAR-5 ovarian) [µM],TGI (SF-295 CNS) [µM],TGI (SF-539 CNS) [µM],TGI (SN12C renal) [µM],TGI (U251 CNS) [µM],TGI (SK-MEL-28 melanoma) [µM]
O=c1c2cc(S(=O)(=O)O)ccc2nc(COc2ccc(Oc3ccc(Cl)cc3Cl)cc2)n1-c1ccc(Cl)cc1Oc1c(Cl)cccc1Cl,67.3,32.1,55.8,> 100,60.6,56.6,33.5,99.4,40.5,–
CC(=O)OCCOCn1cnc2c(Cl)nc(Cl)nc21,91.2,38.1,37.1,37.5,36.9,–,–,33.9,29.2,–
CC(OC(C)(C)C)C(NC(=O)C(CCCCNC(=O)OC(C)(C)C)NC(=O)C(Cc1c[nH]c2ccccc12)NC(=O)C(Cc1ccccc1)NC(=O)OCc1ccccc1)C(=O)NC(Cc1ccccc1)C(=O)O (stereo not given) (Cbz-FWK(Boc)T(tBu)F-OH; configuration not given here),> 100,> 100,> 100,> 100,> 100,> 100,59.9,62.6,> 100,> 100
Cc1ccc(NC(=S)N/N=C(/c2ccccc2)c2ccccn2)cc1,11.2,2.89,2.21,16.6,2.07,12.7,10.3,10.1,12.9,2.32
CC1ON2CCCC2[C@H]1C(=O)N1C2CC3CCC2(CS1(=O)=O)C3(C)C (stereo not given in full),> 100,> 100,> 100,> 100,> 100,> 100,> 100,> 100,> 100,> 100
N#Cc1nc(C2=C(Cl)c3ccccc3OC2)[nH]c1C#N,66.1,–,34.2,> 100,> 100,–,45.2,> 100,75.9,56.8
C=C1CCC23CC(CC[C@@H]2[C@@]12C[C@@H](c1ccoc1)OC2=O)OC3=O (stereo not given in full),> 100,> 100,> 100,> 100,> 100,> 100,> 100,> 100,> 100,–
Cc1ccc(NC(=O)c2cccc(OP(=O)(O)Nc3ccc(C)cc3)c2)cc1,> 100,> 100,> 100,> 100,> 100,> 100,> 100,> 100,> 100,> 100
COc1ccc(-c2cc(=O)c3ccccc3[nH]2)c(OC)c1,–,> 100,> 100,–,–,> 100,> 100,> 100,> 100,> 100
Cc1cc(=O)n2nc(CN3CCCCC3)sc2n1,–,> 100,> 100,> 100,> 100,> 100,> 100,> 100,> 100,> 100
COc1cc(OC)c2c(=O)c(OC)c(-c3ccc4c(c3)OCO4)oc2c1,57.1,> 100,> 100,> 100,> 100,61.7,44.1,> 100,30.3,> 100
O=C(O)[C@@H]1CSCN1C(=O)[C@@H]1CCC(=S)N1,> 100,–,> 100,–,> 100,> 100,> 100,> 100,–,> 100
CC12CCC([C@H](C(O)C3CCCCC3)C1=O)C2(C)C (stereo not given in full),> 100,> 100,> 100,> 100,> 100,> 100,> 100,> 100,> 100,–
CCOP(=O)(O)C1C(CO)OC(n2ccc(=O)[nH]c2=O)C1O (stereo not given),> 100,–,> 100,> 100,–,> 100,> 100,> 100,–,> 100
Cc1[nH]n(C2=NCCN2)c(=O)c1Cc1ccccc1,> 100,> 100,> 100,> 100,> 100,> 100,> 100,–,> 100,–
CC1(C)CC(=O)C(/C=N/c2nc(-c3ccccc3)cs2)=C(O)C1,–,> 100,> 100,> 100,> 100,> 100,64.7,> 100,> 100,> 100
O=C(N/N=C\c1cccc(O)c1)c1ccncc1,> 100,–,> 100,> 100,> 100,> 100,–,> 100,> 100,> 100
COc1ccc(N2C(=O)c3cc(C)cnc3S2(=O)=O)cc1,–,> 100,–,> 100,> 100,> 100,–,> 100,> 100,> 100
CCOC(=O)C(Cc1cn(S(=O)(=O)c2ccccc2)c2ccccc12)(NC(C)=O)C(=O)OCC,–,60.8,> 100,> 100,> 100,> 100,> 100,–,> 100,> 100
O=C1C(Cl)C(c2cccc(Cl)c2)N1c1ccc(-n2c(=S)[nH]c3ccccc3c2=O)cc1 (stereo not given),–,77.9,58.7,39.6,57.5,41.8,54.6,31.9,27.9,–
COc1cccc(/C=C2\C(=O)N(C(=O)c3ccc(NC(C)=O)cc3)N=C2C)c1,–,> 100,> 100,> 100,> 100,> 100,> 100,> 100,> 100,> 100
COC(=O)C1=C(C(=O)OC)c2cc(OC)ccc2C(C(=S)N(C)C)S1 (stereo not given),> 100,> 100,> 100,> 100,> 100,> 100,–,> 100,> 100,> 100
O=C(Cc1ccccc1)N/N=C/c1ccccc1O,–,> 100,22.8,> 100,> 100,85.2,> 100,> 100,> 100,> 100

Structure (SMILES),TGI (A498 renal) [µM],TGI (COLO 205 colon) [µM],TGI (M14 melanoma) [µM],TGI (OVCAR-4 ovarian) [µM],TGI (OVCAR-5 ovarian) [µM],TGI (SF-295 CNS) [µM],TGI (SF-539 CNS) [µM],TGI (SN12C renal) [µM],TGI (U251 CNS) [µM],TGI (SK-MEL-28 melanoma) [µM]
O=c1oc2cc(O)ccc2c(O)c1C(c1ccccc1F)c1c(O)c2ccc(O)cc2oc1=O,> 100,> 100,> 100,–,> 100,> 100,> 100,> 100,> 100,> 100
C=CCc1cc(-c2cc(CC=C)c(O)c(CNCCCl)c2)cc(CNCCCl)c1O,52.3,32.1,32.7,56.7,–,33.8,–,44.6,30.7,32.9
N#C/C(N)=C(\C#N)N=CN,–,> 100,> 100,> 100,> 100,> 100,> 100,> 100,> 100,> 100
O=C(O)Cc1cccc2c1OC(c1ccccc1)C(Cl)(C(=O)c1ccccc1)C2=O (stereo not given),–,–,–,–,–,66.3,84.3,26.2,30.9,29.1
O=C(O)Cc1cc(O)c(CC(=O)O)cc1O,> 100,–,> 100,> 100,> 100,> 100,–,> 100,> 100,> 100
CC1=CC(=O)N(n2c(Cc3ccccc3)n[nH]c2=O)C1=O,> 100,> 100,> 100,> 100,> 100,> 100,> 100,> 100,> 100,–
COc1cc(/C=C2\N=C(c3ccccc3)N(c3nc4c(OC)ccc(OC)c4s3)C2=O)ccc1O,> 100,> 100,> 100,–,> 100,> 100,> 100,> 100,> 100,> 100
COC/C=C\[C@]1(O)CCCC[C@@H]1CC(OC)OC,> 100,> 100,> 100,> 100,> 100,> 100,> 100,–,> 100,> 100
CC(C)=CC(=O)C[C@H]1C(=O)O[C@@H]2C[C@H]3C(C)=CC(=O)[C@@H](O)[C@]3(C)[C@H]3[C@@]4(O)OC[C@]32[C@@H]1[C@@H](C)[C@H]4O,1.15,–,0.115,1.05,–,0.152,–,–,0.137,0.172
Cc1ccccc1N=Nc1ccc(N/N=C2/CCCNC2=O)c(C)c1,> 100,> 100,> 100,> 100,> 100,> 100,–,> 100,> 100,> 100
C/C=C(/C)C(=O)O[C@H]1C[C@@H]2[C@@H](O)c3occ(C)c3C[C@]2(C)[C@@H](C)C1,–,30.2,29.9,32.6,34.8,28.9,31.4,27.3,28.3,29.9
c1csc(-c2cc(-c3cccs3)c(-c3ccsc3)s2)c1,> 100,> 100,> 100,> 100,–,> 100,> 100,> 100,> 100,> 100
N#Cc1c(-c2ccccc2)cc(Nc2cccc(C(F)(F)F)c2)n2c1nc1ccccc12,12.6,2.39,–,22.2,10.7,12.6,5.06,4.34,10.3,21.8
NC(CCC(=O)O)C(=O)N1CCN(c2nc(N3CCCC3)c3nc(Cl)c(NCc4ccccc4)nc3n2)CC1 (stereo not given),–,23.9,22.6,29.1,33.5,26.7,28.5,30.7,30.2,27.7
Cc1nn(C(=O)Cc2ccccc2)c2c1C(c1ccc(N(C)C)cc1)SC(N)=N2 (stereo not given),> 100,> 100,> 100,–,–,> 100,> 100,> 100,–,> 100
COc1cc(OC)cc(-c2nc3cc(F)ccc3s2)c1,62.9,> 100,> 100,> 100,> 100,23.5,31.3,> 100,33.9,–
Cc1ccc(N=Nc2c(C)c(C#N)c(=S)n(C3OC(CO)C(O)C(O)C3O)c2C)cc1 (stereo not given),–,> 100,41.7,> 100,> 100,> 100,> 100,94.2,52.6,44.7
Cc1ccc(-c2c3nc(c(-c4ccc(C)cc4)c4ccc([nH]4)c(-c4ccc(OCC5COC(C)(C)O5)cc4)c4nc(c(-c5ccc(C)cc5)c5ccc2[nH]5)C=C4)C=C3)cc1 (stereo not given),–,> 31.6,> 31.6,> 31.6,> 31.6,> 31.6,> 31.6,> 31.6,> 31.6,> 31.6
Cc1ccc(C)c(COCCOCn2ccc(N)nc2=O)c1,> 100,> 100,> 100,–,> 100,> 100,> 100,> 100,> 100,> 100
O=C1CCCC2(c3ccccc3)Nc3ccccc3N12 (stereo not given),–,> 100,> 100,> 100,> 100,> 100,> 100,> 100,> 100,> 100
CC(C)Oc1ccc2c(c1)OCC1Cc3ccccc3OC21 (stereo not given),> 100,–,> 100,–,> 100,> 100,> 100,> 100,> 100,–
NC(=S)Nc1ccc(S(=O)(=O)Nc2ccc(S(N)(=O)=O)cc2)cc1,> 100,> 100,> 100,> 100,> 100,> 100,–,> 100,> 100,> 100
COC(=O)C(NC(=O)c1ccccc1)c1ccco1 (stereo not given),> 100,–,> 100,–,> 100,> 100,> 100,> 100,> 100,> 100

# — PubChem BioAssay (NCI)
